Measurements taken from US12209102B2, “Heterocyclic compounds and uses thereof” (Kumquat Biosciences Inc., priority 2022, dated 2025).

How the values were obtained:
SW620 cells = assay: Ras cellular assay, growth of cells with K-Ras G12V mutation (CellTiter-Glo); assay type: cell-based; details: Homo sapiens, SW-620; cell growth, Example 9, G12V mutation; read-out: IC50 against SW620 cells
In short: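 IC50 values came from a four-parameter fit of CellTiter-Glo viability, read roughly 6 days after dosing with e.g. a 10-point threefold dilution series. G12V-mutant SW620 cells (e.g. 800 per well) had been plated the previous day in RPMI-1640/10% heat-inactivated FBS, on tissue culture-treated or ultra-low attachment plates.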

GP2D cells = assay: Ras cellular assay, growth of cells with K-Ras G12D mutation (CellTiter-Glo); assay type: cell-based; details: cell growth, Example 9, G12D mutation, read-out: IC50 against GP2D cells
K-Ras G12V = molecular target: T1, K-Ras G12V (Homo sapiens, UniProt P01116, G12V); assay: HTRF resonance energy transfer assay, K-Ras G12V / SOS1 interaction; assay type: biochemical; details: HTRF assay of Example 5; read-out: IC50 against K-Ras G12V
T1 construct: made in house; host or cells: E. coli BL21 (DE3)
T1 sequence (P01116 1-188 isoform P01116-2 G12V): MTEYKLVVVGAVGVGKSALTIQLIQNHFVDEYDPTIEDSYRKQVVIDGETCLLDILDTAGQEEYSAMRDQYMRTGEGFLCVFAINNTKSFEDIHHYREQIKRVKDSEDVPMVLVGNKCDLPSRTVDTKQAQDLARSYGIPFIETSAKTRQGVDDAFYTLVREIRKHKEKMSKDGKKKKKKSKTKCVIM
In short: (§1)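 Buffer about 5 mM HEPES pH 7.4 with ~150 mM NaCl, ~1 mM DTT, 0.05% BSA, 0.0025% (v/v) Igepal. Protein constructs used at molarity matching the IC50 range studied (e.g. ~500 nM). FRET between tagged K-Ras and hSOS1 measured after short incubation.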

K-Ras G12S = molecular target: T2, K-Ras G12S (Homo sapiens, UniProt P01116, G12S); assay: HTRF resonance energy transfer assay, K-Ras G12S / SOS1 interaction; assay type: biochemical; details: HTRF assay of Example 5; read-out: IC50 against K-Ras G12S
T2 construct: made in house; host or cells: E. coli BL21 (DE3)
T2 sequence (P01116 1-188 isoform P01116-2 G12S): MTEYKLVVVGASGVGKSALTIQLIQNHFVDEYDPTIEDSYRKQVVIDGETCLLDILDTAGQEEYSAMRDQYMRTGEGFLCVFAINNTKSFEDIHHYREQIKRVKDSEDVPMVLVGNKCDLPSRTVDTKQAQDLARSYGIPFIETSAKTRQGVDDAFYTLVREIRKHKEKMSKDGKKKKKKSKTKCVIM
In short: as §1

K-Ras WT = molecular target: T3, K-Ras WT (Homo sapiens, UniProt P01116); assay: HTRF resonance energy transfer assay, K-Ras WT / SOS1 interaction; assay type: biochemical; details: HTRF assay of Example 5; read-out: IC50 against K-Ras WT
T3 construct: made in house; host or cells: E. coli BL21 (DE3)
T3 sequence (P01116 1-188 isoform P01116-2): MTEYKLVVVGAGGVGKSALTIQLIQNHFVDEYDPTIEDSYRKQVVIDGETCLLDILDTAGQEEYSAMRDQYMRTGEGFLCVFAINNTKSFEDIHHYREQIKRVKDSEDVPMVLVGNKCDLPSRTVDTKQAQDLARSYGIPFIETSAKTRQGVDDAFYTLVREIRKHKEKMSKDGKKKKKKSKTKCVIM
In short: as §1

K-Ras G12D = molecular target: T4, K-Ras G12D (Homo sapiens, UniProt P01116, G12D); assay: HTRF resonance energy transfer assay, K-Ras G12D / SOS1 interaction; assay type: biochemical; details: HTRF assay of Example 5; read-out: IC50 against K-Ras G12D
T4 construct: made in house; host or cells: E. coli BL21 (DE3)
T4 sequence (P01116 1-188 isoform P01116-2 G12D): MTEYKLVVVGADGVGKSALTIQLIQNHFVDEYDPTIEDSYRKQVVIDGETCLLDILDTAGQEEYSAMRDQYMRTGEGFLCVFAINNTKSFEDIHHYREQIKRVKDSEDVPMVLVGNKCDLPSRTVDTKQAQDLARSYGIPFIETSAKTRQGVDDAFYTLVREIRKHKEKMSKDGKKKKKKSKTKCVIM
In short: as §1

## C=C[C@H]1COc2c(Cl)c(-c3ccc(F)c4sc(N)c(C#N)c34)c(F)c3nc(OC[C@@]45CCCN4C[C@H](F)C5)nc(c23)N1CCC(F)F (single isomer, unassigned) [Compound 727]
SW620 cells
  IC50: < 5000 nM
GP2D cells
  IC50: < 500 nM

## N#Cc1c(N)sc2c(F)ccc(-c3c(Cl)c4c5c(nc(OC[C@@]67CCCN6C[C@H](F)C7)nc5c3F)N(C3CCOC3)[C@@H](C3(F)CC3)CO4)c12 (single isomer, unassigned) [Compound 772]
K-Ras G12V
  IC50: < 100 nM
SW620 cells
  IC50: < 5000 nM
K-Ras G12S
  IC50: < 100 nM
K-Ras WT
  IC50: < 100 nM
K-Ras G12D
  IC50: < 100 nM
GP2D cells
  IC50: < 500 nM

## C=C[C@H]1COc2c(Cl)c(-c3ccc(F)c4sc(N)c(C#N)c34)c(F)c3nc(OC[C@@]45CCCN4C[C@H](F)C5)nc(c23)N1C1CCOC1 (single isomer, unassigned) [Compound 980]
K-Ras G12V
  IC50: < 100 nM
SW620 cells
  IC50: < 5000 nM
K-Ras G12S
  IC50: < 100 nM
K-Ras WT
  IC50: < 100 nM
K-Ras G12D
  IC50: < 100 nM
GP2D cells
  IC50: < 500 nM

## CN(C)C1(CN2CCOc3c(Cl)c(-c4ccc(F)c5sc(N)c(C#N)c45)c(F)c4nc(OC[C@@]56CCCN5C[C@H](F)C6)nc2c34)CCC1 [Compound 606, 2-amino-4-(8-chloro-4-((1-(dimethylamino)cyclobutyl)methyl)-10-fluoro-2-(((2R,7aS)-2-fluorotetrahydro-1H-pyrrolizin-7a(5H)-yl)methoxy)-5,6-dihydro-4H-[1,4]oxazepino[5,6,7-de]quinazolin-9-yl)-7-fluorobenzo[b]thiophene-3-carbonitrile]
K-Ras G12V
  IC50: < 100 nM
SW620 cells
  IC50: < 5000 nM
K-Ras G12S
  IC50: < 100 nM
K-Ras WT
  IC50: < 100 nM
K-Ras G12D
  IC50: < 100 nM
GP2D cells
  IC50: < 500 nM

## COCCN1c2nc(OC[C@@]34CCCN3C[C@H](F)C4)nc3c(F)c(-c4ccc(F)c5sc(N)c(C#N)c45)c(Cl)c(c23)OC[C@@H]1CNC=O [Compound 607, N-(((5S)-9-(2-amino-3-cyano-7-fluorobenzo[b]thiophen-4-yl)-8-chloro-10-fluoro-2-(((2R,7aS)-2-fluorotetrahydro-1H-pyrrolizin-7a(5H)-yl)methoxy)-4-(2-methoxyethyl)-5,6-dihydro-4H-[1,4]oxazepino[5,6,7-de]quinazolin-5-yl)methyl)formamide]
K-Ras G12V
  IC50: < 100 nM
SW620 cells
  IC50: < 5000 nM
K-Ras G12S
  IC50: < 100 nM
K-Ras WT
  IC50: < 100 nM
K-Ras G12D
  IC50: < 100 nM
GP2D cells
  IC50: < 500 nM

## N#Cc1c(N)sc2c(F)ccc(-c3c(Cl)c4c5c(nc(OC[C@@]67CCCN6C[C@H](F)C7)nc5c3F)N(CCC(F)F)[C@@H](CNC=O)CO4)c12 [Compound 614, N-(((5S)-9-(2-amino-3-cyano-7-fluorobenzo[b]thiophen-4-yl)-8-chloro-4-(3,3-difluoropropyl)-10-fluoro-2-(((2R,7aS)-2-fluorotetrahydro-1H-pyrrolizin-7a(5H)-yl)methoxy)-5,6-dihydro-4H-[1,4]oxazepino[5,6,7-de]quinazolin-5-yl)methyl)formamide]
K-Ras G12V
  IC50: < 100 nM
SW620 cells
  IC50: < 5000 nM
K-Ras G12S
  IC50: < 100 nM
K-Ras WT
  IC50: < 100 nM
K-Ras G12D
  IC50: < 100 nM
GP2D cells
  IC50: < 500 nM

## N#Cc1c(N)sc2c(F)ccc(-c3c(Cl)c4c5c(nc(OC[C@@]67CCCN6C[C@H](F)C7)nc5c3F)N[C@@H](C(F)F)CO4)c12 [Compound 618, 2-amino-4-((R)-8-chloro-5-(difluoromethyl)-10-fluoro-2-(((2R,7aS)-2-fluorotetrahydro-1H-pyrrolizin-7a(5H)-yl)methoxy)-5,6-dihydro-4H-[1,4]oxazepino[5,6,7-de]quinazolin-9-yl)-7-fluorobenzo[b]thiophene-3-carbonitrile]
K-Ras G12V
  IC50: < 100 nM
SW620 cells
  IC50: < 5000 nM
K-Ras G12S
  IC50: < 100 nM
K-Ras WT
  IC50: < 100 nM
K-Ras G12D
  IC50: < 100 nM
GP2D cells
  IC50: < 500 nM

## N#Cc1c(N)sc2c(F)ccc(-c3c(Cl)c4c5c(nc(OC[C@@]67CCCN6C[C@H](F)C7)nc5c3F)N(CCC(F)F)[C@@H](C3CC3)CO4)c12 [Compound 668, 2-amino-4-((S)-8-chloro-5-cyclopropyl-4-(3,3-difluoropropyl)-10-fluoro-2-(((2R,7aS)-2-fluorotetrahydro-1H-pyrrolizin-7a(5H)-yl)methoxy)-5,6-dihydro-4H-[1,4]oxazepino[5,6,7-de]quinazolin-9-yl)-7-fluorobenzo[b]thiophene-3-carbonitrile]
K-Ras G12V
  IC50: < 100 nM
SW620 cells
  IC50: < 5000 nM
K-Ras G12S
  IC50: < 100 nM
K-Ras WT
  IC50: < 100 nM
K-Ras G12D
  IC50: < 100 nM
GP2D cells
  IC50: < 500 nM

## N#Cc1c(N)sc2c(F)ccc(-c3c(Cl)c4c5c(nc(OC[C@@]67CCCN6C[C@H](F)C7)nc5c3F)N(CC(F)F)[C@@H](C3(O)CC3)CO4)c12 [Compound 707, 2-amino-4-((R)-8-chloro-4-(2,2-difluoroethyl)-10-fluoro-2-(((2R,7aS)-2-fluorotetrahydro-1H-pyrrolizin-7a(5H)-yl)methoxy)-5-(1-hydroxycyclopropyl)-5,6-dihydro-4H-[1,4]oxazepino[5,6,7-de]quinazolin-9-yl)-7-fluorobenzo[b]thiophene-3-carbonitrile]
K-Ras G12V
  IC50: < 100 nM
K-Ras G12S
  IC50: < 100 nM
K-Ras WT
  IC50: < 100 nM
K-Ras G12D
  IC50: < 100 nM
GP2D cells
  IC50: < 500 nM

## C#C[C@H]1COc2c(Cl)c(-c3ccc(F)c4sc(N)c(C#N)c34)c(F)c3nc(OC[C@@]45CCCN4C[C@H](F)C5)nc(c23)N1CC(F)F [Compound 730, 2-amino-4-((5S)-8-chloro-4-(2,2-difluoroethyl)-5-ethynyl-10-fluoro-2-(((2R,7aS)-2-fluorotetrahydro-1H-pyrrolizin-7a(5H)-yl)methoxy)-5,6-dihydro-4H-[1,4]oxazepino[5,6,7-de]quinazolin-9-yl)-7-fluorobenzo[b]thiophene-3-carbonitrile]
SW620 cells
  IC50: < 5000 nM
GP2D cells
  IC50: < 500 nM

## C=C(C)[C@H]1COc2c(Cl)c(-c3ccc(F)c4sc(N)c(C#N)c34)c(F)c3nc(OC[C@@]45CCCN4C[C@H](F)C5)nc(c23)N1CC(F)F [Compound 879, 2-amino-4-((5S)-8-chloro-4-(2,2-difluoroethyl)-10-fluoro-2-(((2R,7aS)-2-fluorotetrahydro-1H-pyrrolizin-7a(5H)-yl)methoxy)-5-(prop-1-en-2-yl)-5,6-dihydro-4H-[1,4]oxazepino[5,6,7-de]quinazolin-9-yl)-7-fluorobenzo[b]thiophene-3-carbonitrile]
K-Ras G12V
  IC50: < 100 nM
K-Ras G12S
  IC50: < 100 nM
K-Ras WT
  IC50: < 100 nM
K-Ras G12D
  IC50: < 100 nM
GP2D cells
  IC50: < 500 nM

## CNCCN1CCOc2c(Cl)c(-c3ccc(F)c4sc(N)c(C#N)c34)c(F)c3nc(OC[C@@]45CCCN4C[C@H](F)C5)nc1c23 [Compound 961, 2-amino-4-(8-chloro-10-fluoro-2-(((2R,7aS)-2-fluorotetrahydro-1H-pyrrolizin-7a(5H)-yl)methoxy)-4-(2-(methylamino)ethyl)-5,6-dihydro-4H-[1,4]oxazepino[5,6,7-de]quinazolin-9-yl)-7-fluorobenzo[b]thiophene-3-carbonitrile]
K-Ras G12V
  IC50: < 100 nM
K-Ras G12S
  IC50: < 100 nM
K-Ras WT
  IC50: < 100 nM
K-Ras G12D
  IC50: < 100 nM
GP2D cells
  IC50: < 500 nM

## C[C@H]1COc2c(Cl)c(-c3ccc(F)c4sc(N)c(C#N)c34)c(F)c3nc(OC[C@@]45CCCN4C[C@H](F)C5)nc(c23)N1CC(F)F [Compound 1088, 2-amino-4-((5S)-8-chloro-4-(2,2-difluoroethyl)-10-fluoro-2-(((2R,7aS)-2-fluorotetrahydro-1H-pyrrolizin-7a(5H)-yl)methoxy)-5-methyl-5,6-dihydro-4H-[1,4]oxazepino[5,6,7-de]quinazolin-9-yl)-7-fluorobenzo[b]thiophene-3-carbonitrile]
K-Ras G12V
  IC50: < 100 nM
SW620 cells
  IC50: < 5000 nM
K-Ras G12S
  IC50: < 100 nM
K-Ras WT
  IC50: < 100 nM
GP2D cells
  IC50: < 500 nM

## N#Cc1c(N)sc2c(F)ccc(-c3c(Cl)c4c5c(nc(OC[C@@]67CCCN6C[C@H](F)C7)nc5c3F)N(CC(F)F)[C@@H](C3CC3C#N)CO4)c12 (stereo partly drawn) [Compound 1109, 2-amino-4-((5S)-8-chloro-5-(2-cyanocyclopropyl)-4-(2,2-difluoroethyl)-10-fluoro-2-(((2R,7aS)-2-fluorotetrahydro-1H-pyrrolizin-7a(5H)-yl)methoxy)-5,6-dihydro-4H-[1,4]oxazepino[5,6,7-de]quinazolin-9-yl)-7-fluorobenzo[b]thiophene-3-carbonitrile]
SW620 cells
  IC50: < 5000 nM
GP2D cells
  IC50: < 500 nM

## N#Cc1c(N)sc2c(F)ccc(-c3c(Cl)c4c5c(nc(OC[C@@]67CCCN6C[C@H](F)C7)nc5c3F)N([C@@H]3CCNC3)CCO4)c12 [Compound 1124, 2-amino-4-(8-chloro-10-fluoro-2-(((2R,7aS)-2-fluorotetrahydro-1H-pyrrolizin-7a(5H)-yl)methoxy)-4-((R)-pyrrolidin-3-yl)-5,6-dihydro-4H-[1,4]oxazepino[5,6,7-de]quinazolin-9-yl)-7-fluorobenzo[b]thiophene-3-carbonitrile]
K-Ras G12V
  IC50: < 100 nM
K-Ras G12S
  IC50: < 100 nM
K-Ras WT
  IC50: < 100 nM
K-Ras G12D
  IC50: < 100 nM
GP2D cells
  IC50: < 500 nM
